The target of the experiment is T1, recombinant full-length human prolyl endopeptidase (PREP) (Homo sapiens, UniProt P48147).
T1 construct: To recombinant full-length human prolyl endopeptidase (PREP, R&D-Systems, 4308-SE); purchased R&D-Systems 4308-SE
T1 sequence (P48147 1-710): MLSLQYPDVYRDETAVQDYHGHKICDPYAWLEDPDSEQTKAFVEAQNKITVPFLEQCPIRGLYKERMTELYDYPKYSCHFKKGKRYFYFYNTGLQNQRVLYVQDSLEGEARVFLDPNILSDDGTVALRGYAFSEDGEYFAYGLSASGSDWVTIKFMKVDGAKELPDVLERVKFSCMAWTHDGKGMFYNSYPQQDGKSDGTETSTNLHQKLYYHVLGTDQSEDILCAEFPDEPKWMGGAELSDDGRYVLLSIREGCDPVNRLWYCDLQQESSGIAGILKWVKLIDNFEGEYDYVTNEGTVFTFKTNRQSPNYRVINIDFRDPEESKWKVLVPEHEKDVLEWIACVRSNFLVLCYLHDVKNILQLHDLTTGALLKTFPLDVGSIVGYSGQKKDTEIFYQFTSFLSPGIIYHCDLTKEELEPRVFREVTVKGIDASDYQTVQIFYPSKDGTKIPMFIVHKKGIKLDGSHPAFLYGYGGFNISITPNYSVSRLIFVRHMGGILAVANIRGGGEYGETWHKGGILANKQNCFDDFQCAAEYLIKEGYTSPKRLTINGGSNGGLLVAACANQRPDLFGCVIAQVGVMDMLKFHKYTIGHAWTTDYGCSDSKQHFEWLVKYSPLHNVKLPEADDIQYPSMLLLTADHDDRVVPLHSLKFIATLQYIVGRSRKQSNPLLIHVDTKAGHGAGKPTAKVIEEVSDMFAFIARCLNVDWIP
The experiment in a line: Biochemical human prolyl endopeptidase (PREP) assay with fluorescently labelled substrate. The note with it: substrate Z-Gly-Pro-AMC 50 μM, 32° C., 60 min; some as mean values from multiple independent determinations. The method in brief:
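Initial rates of fluorescence increase from 50 μM Z-Gly-Pro-AMC cleavage (ex 360/em 465 nm, 60 min, 32° C) give percent PREP activity versus no-compound control, and IC50 is interpolated. Enzyme used at 0.4 nM (final, example) in Tris pH 7.5 with EDTA, GSH, BSA and Brij-35; compounds span 1 nM to 30 μM.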
Consider `O=C([C@@H]1CCCc2nn(Cc3cccc(C(F)(F)F)n3)c(=O)n21)N1CCC(F)(F)C1` [Example 368, (5S)-5-[(3,3-Difluoropyrrolidin-1-yl)carbonyl]-2-{[6-(trifluoromethyl)pyridin-2-yl]methyl}-5,6,7,8-tetrahydro[1,2,4]triazolo[4,3-a]pyridin-3(2H)-one], for which the IC50 worked out at 9 nM.
On to `O=C([C@@H]1CCCc2nn(Cc3cccc(C(F)(F)F)n3)c(=O)n21)N1CC(F)C1` [Example 369, (5S)-5-[(3-Fluoroazetidin-1-yl)carbonyl]-2-{[6-(trifluoromethyl)pyridin-2-yl]methyl}-5,6,7,8-tetrahydro[1,2,4]triazolo[4,3-a]pyridin-3(2H)-one], for which the IC50 was 13 nM.
On to `O=C([C@@H]1CCCc2nn(Cc3cccc(C(F)(F)F)n3)c(=O)n21)N1CC[C@H](F)C1` [Example 370, (5S)-5-{[(3S)-3-Fluoropyrrolidin-1-yl]carbonyl}-2-{[6-(trifluoromethyl)pyridin-2-yl]methyl}-5,6,7,8-tetrahydro[1,2,4]triazolo[4,3-a]pyridin-3(2H)-one], for which the IC50 was 1 nM.
Regarding `O=C([C@@H]1CCCc2nn(Cc3cccc(C(F)(F)F)n3)c(=O)n21)N1C[C@@H](F)[C@@H](F)C1` [Example 371, (5S)-5-{[(3R,4S)-3,4-Difluoropyrrolidin-1-yl]carbonyl}-2-{[6-(trifluoromethyl)pyridin-2-yl]methyl}-5,6,7,8-tetrahydro[1,2,4]triazolo[4,3-a]pyridin-3(2H)-one], the half-maximal inhibitory concentration (IC50) came out at 1.2 nM.
Regarding `O=C([C@@H]1CCCc2nn(Cc3cc(C(F)(F)F)c(Cl)cn3)c(=O)n21)N1C[C@@H](F)[C@@H](F)C1` [Example 372, (5S)-2-{[5-Chloro-4-(trifluoromethyl)pyridin-2-yl]methyl}-5-{[(3R,4S)-3,4-difluoropyrrolidin-1-yl]carbonyl}-5,6,7,8-tetrahydro[1,2,4]triazolo[4,3-a]pyridin-3(2H)-one], the IC50 came out at 1.3 nM.
`O=C([C@@H]1CCCc2nn(Cc3cc(C(F)(F)F)c(Cl)cn3)c(=O)n21)N1CC(O)C1` [Example 373, (5S)-2-{[5-Chloro-4-(trifluoromethyl)pyridin-2-yl]methyl}-5-[(3-hydroxyazetidin-1-yl)carbonyl]-5,6,7,8-tetrahydro[1,2,4]triazolo[4,3-a]pyridin-3(2H)-one]: the IC50 is 135 nM.
In the case of `O=C([C@@H]1CCCc2nn(Cc3cc(C(F)(F)F)c(Cl)cn3)c(=O)n21)N1CC[C@H](O)C1` [Example 374, (5S)-2-{[5-Chloro-4-(trifluoromethyl)pyridin-2-yl]methyl}-5-{[(3S)-3-hydroxypyrrolidin-1-yl]carbonyl}-5,6,7,8-tetrahydro[1,2,4]triazolo[4,3-a]pyridin-3(2H)-one], the IC50 was 51.5 nM.
To `O=C([C@@H]1CCCc2nn(Cc3cc(C(F)(F)F)c(Cl)cn3)c(=O)n21)N1CC(F)C1` [Example 375, (5S)-2-{[5-Chloro-4-(trifluoromethyl)pyridin-2-yl]methyl}-5-[(3-fluoroazetidin-1-yl)carbonyl]-5,6,7,8-tetrahydro[1,2,4]triazolo[4,3-a]pyridin-3(2H)-one] belongs 2.6 nM; to `O=C([C@@H]1CCCc2nn(Cc3cc(C(F)(F)F)c(Cl)cn3)c(=O)n21)N1CC[C@H](F)C1` [Example 376, (5S)-2-{[5-Chloro-4-(trifluoromethyl)pyridin-2-yl]methyl}-5-{[(3S)-3-fluoropyrrolidin-1-yl]carbonyl}-5,6,7,8-tetrahydro[1,2,4]triazolo[4,3-a]pyridin-3(2H)-one], 0.41 nM; to `O=C([C@@H]1CCCc2nn(Cc3ccc(Cl)cn3)c(=O)n21)N1CCC(F)(F)C1` [Example 377, (5S)-2-[(5-Chloropyridin-2-yl)methyl]-5-[(3,3-difluoropyrrolidin-1-yl)carbonyl]-5,6,7,8-tetrahydro[1,2,4]triazolo[4,3-a]pyridin-3(2H)-one], 6.86 nM.
Next, `O=C([C@@H]1CCCc2nn(Cc3ccc(Cl)cn3)c(=O)n21)N1C[C@@H](F)[C@@H](F)C1` [Example 378, (5S)-2-[(5-Chloropyridin-2-yl)methyl]-5-{[(3R,4S)-3,4-difluoropyrrolidin-1-yl]carbonyl}-5,6,7,8-tetrahydro[1,2,4]triazolo[4,3-a]pyridin-3(2H)-one]: 2.6 nM; `O=C([C@@H]1CCCc2nn(Cc3ccc(Cl)cn3)c(=O)n21)N1CC(F)C1` [Example 379, (5S)-2-[(5-Chloropyridin-2-yl)methyl]-5-[(3-fluoroazetidin-1-yl)carbonyl]-5,6,7,8-tetrahydro[1,2,4]triazolo[4,3-a]pyridin-3(2H)-one]: 2.5 nM; `COc1ccc(Cn2nc3n(c2=O)[C@H](C(=O)N2C[C@@H](F)[C@@H](F)C2)CCC3)nc1` [Example 380, (5S)-5-{[(3R,4S)-3,4-Difluoropyrrolidin-1-yl]carbonyl}-2-[(5-methoxypyridin-2-yl)methyl]-5,6,7,8-tetrahydro[1,2,4]triazolo[4,3-a]pyridin-3(2H)-one]: 2.1 nM.
Next, `COc1ccc(Cn2nc3n(c2=O)[C@H](C(=O)N2CCC(F)(F)C2)CCC3)nc1` [Example 381, (5S)-5-[(3,3-Difluoropyrrolidin-1-yl)carbonyl]-2-[(5-methoxypyridin-2-yl)methyl]-5,6,7,8-tetrahydro[1,2,4]triazolo[4,3-a]pyridin-3(2H)-one]: 5.5 nM; `COc1ccc(Cn2nc3n(c2=O)[C@H](C(=O)N2CC(F)C2)CCC3)nc1` [Example 382, (5S)-5-[(3-Fluoroazetidin-1-yl)carbonyl]-2-[(5-methoxypyridin-2-yl)methyl]-5,6,7,8-tetrahydro[1,2,4]triazolo[4,3-a]pyridin-3(2H)-one]: 5.9 nM.
In the case of `O=C([C@@H]1CCCc2nn(Cc3cccc(Cl)n3)c(=O)n21)N1CCC(F)(F)C1` [Example 383, (5S)-2-[(6-Chloropyridin-2-yl)methyl]-5-[(3,3-difluoropyrrolidin-1-yl)carbonyl]-5,6,7,8-tetrahydro[1,2,4]triazolo[4,3-a]pyridin-3(2H)-one], the IC50 is 8.55 nM.
`O=C([C@@H]1CCCc2nn(Cc3cccc(Cl)n3)c(=O)n21)N1CC(F)C1` [Example 384, (5S)-2-[(6-Chloropyridin-2-yl)methyl]-5-[(3-fluoroazetidin-1-yl)carbonyl]-5,6,7,8-tetrahydro[1,2,4]triazolo[4,3-a]pyridin-3(2H)-one]: the half-maximal inhibitory concentration (IC50) is 11 nM.
For `O=C([C@@H]1CCCc2nn(Cc3cccc(Cl)n3)c(=O)n21)N1C[C@@H](F)[C@@H](F)C1` [Example 385, (5S)-2-[(6-Chloropyridin-2-yl)methyl]-5-{[(3R,4S)-3,4-difluoropyrrolidin-1-yl]carbonyl}-5,6,7,8-tetrahydro[1,2,4]triazolo[4,3-a]pyridin-3(2H)-one], the IC50 amounted to 1.8 nM.
Consider `O=C([C@@H]1CCCc2nn(Cc3cccc(Cl)n3)c(=O)n21)N1CC[C@H](F)C1` [Example 386, (5S)-2-[(6-Chloropyridin-2-yl)methyl]-5-{[(3S)-3-fluoropyrrolidin-1-yl]carbonyl}-5,6,7,8-tetrahydro[1,2,4]triazolo[4,3-a]pyridin-3(2H)-one], for which the 50% inhibitory concentration (IC50) came to 0.94 nM.
Take `O=C([C@@H]1CCCc2nn(Cc3nccc(C(F)(F)F)c3Cl)c(=O)n21)N1CCC(F)(F)C1` [Example 387, (5S)-2-{[3-Chloro-4-(trifluoromethyl)pyridin-2-yl]methyl}-5-[(3,3-difluoropyrrolidin-1-yl)carbonyl]-5,6,7,8-tetrahydro[1,2,4]triazolo[4,3-a]pyridin-3(2H)-one]: the IC50 was determined as 3.4 nM.
With `O=C([C@@H]1CCCc2nn(Cc3nccc(C(F)(F)F)c3Cl)c(=O)n21)N1C[C@@H](F)[C@@H](F)C1` [Example 388, (5S)-2-{[3-Chloro-4-(trifluoromethyl)pyridin-2-yl]methyl}-5-{[(3R,4S)-3,4-difluoropyrrolidin-1-yl]carbonyl}-5,6,7,8-tetrahydro[1,2,4]triazolo[4,3-a]pyridin-3(2H)-one], the IC50 is 0.575 nM.
To `O=C([C@@H]1CCCc2nn(Cc3nccc(C(F)(F)F)c3Cl)c(=O)n21)N1CC(F)C1` [Example 389, (5S)-2-{[3-Chloro-4-(trifluoromethyl)pyridin-2-yl]methyl}-5-[(3-fluoroazetidin-1-yl)carbonyl]-5,6,7,8-tetrahydro[1,2,4]triazolo[4,3-a]pyridin-3(2H)-one] belongs 1.45 nM.
To `O=C([C@@H]1CCCc2nn(Cc3nccc(C(F)(F)F)c3Cl)c(=O)n21)N1CC(O)C1` [Example 390, (5S)-2-{[3-Chloro-4-(trifluoromethyl)pyridin-2-yl]methyl}-5-[(3-hydroxyazetidin-1-yl)carbonyl]-5,6,7,8-tetrahydro[1,2,4]triazolo[4,3-a]pyridin-3(2H)-one] belongs 13.5 nM.

Usually IC50 stands for the concentration at which inhibition is half-maximal.

These data come from patent publication US10722501B2 (BAYER AKTIENGESELLSCHAFT, priority 2016, dated 2020).
